In paper PMC5978685, “Design, Synthesis, and Evaluation of Novel Immunomodulatory Small Molecules Targeting the CD40–CD154 Costimulatory Protein-Protein Interaction” (Molecules : A Journal of Synthetic Chemistry and Natural …, 2018):
Where two headings read alike, the source gives them in different places.

Assays:
CD40–CD154 (CD40L) [1] = molecular target: T1, CD40–CD154 (CD40L) (Homo sapiens, UniProt P29965); experiment: cell-free ELISA-type binding inhibition assay, CD40–CD154; settings: for selectivity toward CD40–CD154 against all other PPIs tested: vs OX40–OX40L, BAFFR–BAFF, TNF-R1–TNF-α
T1 construct: purchased Enzo Life Sciences
T1 sequence (P29965 116-261 limits assumed): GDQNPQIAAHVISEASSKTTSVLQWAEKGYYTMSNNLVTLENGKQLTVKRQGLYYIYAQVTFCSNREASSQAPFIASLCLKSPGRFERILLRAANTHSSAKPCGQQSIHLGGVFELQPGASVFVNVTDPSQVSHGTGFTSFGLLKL
From the text: As a first assessment, the CD40–CD154 inhibitory activity of compounds 6–19 (Figure 2, Table 1) was quantified using a cell-free in vitro binding inhibition assay as described before. Data fitted with typical sigmoidal concentration dependence curves (log inhibitor versus response model in GraphPad Prism, Hill slope n = 1) are summarized in Figure 3A. […] Polymolecular conglomeration and/or aggregation is often a cause of promiscuous inhibition in screening assays. Therefore, just as in our previous work, we checked for this, and we confirmed for several compounds that inhibition due to aggregation is not the case by retesting inhibitory activity in the presence of a non-ionic detergent (Triton-X 100, 0.01%) as recommended for the detection of such effects.
(§1) Binding inhibition assays were performed in a 96-well cell-free format as described before. Briefly, microtiter plates (Nunc F Maxisorp, 96-well; Thermo Fisher Scientific, Waltham, MA, USA) were coated overnight at 4 °C with 100 μL/well of Fc-conjugated receptors diluted in PBS pH 7.2. This was followed by blocking with 200 μL/well of blocking solution (PBS pH 7.2, 0.05% Tween-20, 1% BSA) for 1 h at RT. Then, plates were washed twice using washing solution (PBS pH 7.4, 0.05% Tween-20) and tapped dry before the addition of the appropriate FLAG tagged ligands along with different concentrations of tested dyes diluted in binding buffer (100 mM HEPES, 0.005% BSA pH 7.2) to give a total volume of 100 μL/well. After 1 h incubation, three washes were conducted, and anti-FLAG HRP conjugate was used to detect the bound FLAG-tagged ligand. Plates were washed four times before the addition of 120 μL/well of HRP substrate TMB (3,3′,5,5′-tetramethylbenzidine) and kept in the dark for up to 15 min. The reaction was stopped using 30 μL of 1M H2SO4, and the absorbance value was read at 450 nm. The concentrations of receptors used were 0.3 μg/mL for CD40, TNF-R1, and BAFFR; 0.6 μg/mL for OX40. The concentrations of the ligands were fixed at 0.02 μg/mL for CD154 and TNF-α, 0.06 μg/mL for OX40L, and 0.03 μg/mL for BAFF. These values were selected following preliminary testing to optimize response (i.e., to produce a high-enough signal at conditions close to half-maximal response, EC50). […] To verify that inhibition is not due to colloidal aggregation, CD40 binding inhibition was also measured in the presence of the non-ionic detergent Triton-X 100 (0.01%), as recommended for the detection of such effects.
(§2) All binding inhibition and cell assays were tested in duplicate or triplicate per plates, and assays were performed as at least three independent experiments. As before, binding and cytotoxicity data were converted to percent inhibition and fitted with standard log inhibitor vs. normalized response models using nonlinear regression in GraphPad Prism (GraphPad, La Jolla, CA, USA) to establish half-maximal (median) inhibitory concentration (IC50) or median lethal concentration (LC50) values. Cell assay data were fitted with a similar model that also allowed for a variable slope using the log inhibitor vs. normalized response (variable slope) model from Prism with a Hill slope (n) shared across all compounds. Cell assays and draining lymph node data were analyzed by one-way repeated-measures analysis of variance (ANOVA) followed by Dunnett’s multiple comparison test as a post hoc test for individual differences using GraphPad Prism and a significance level of p < 0.05 for all comparisons.
(§3) Data are (counterclockwise) for human CD40–CD154 (CD40L) (A); OX40–OX40L (B); BAFFR–BAFF (C); and TNF-R1–TNFα (D) and were fitted with standard binding curves. Data are average ± SD (normalized to percent binding) for n = 3 independent experiments with duplicates for each condition.

OX40–OX40L = molecular target: T2, OX40–OX40L (Homo sapiens, UniProt P23510); experiment: cell-free ELISA-type binding inhibition assay, OX40–OX40L
T2 construct: purchased Enzo Life Sciences
T2 sequence (P23510 51-183 limits assumed): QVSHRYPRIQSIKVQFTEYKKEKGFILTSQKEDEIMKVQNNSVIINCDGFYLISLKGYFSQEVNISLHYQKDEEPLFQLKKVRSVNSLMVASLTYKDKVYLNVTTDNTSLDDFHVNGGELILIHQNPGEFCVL
Description: (§4) In parallel with the CD40–CD154 assay, the ability of these compounds to inhibit other TNFSFR–TNFSF PPIs, including OX40–OX40L, BAFFR–BAFF, and TNF-R1–TNF-α, was also assessed (Figure 3B–D).
as §1, §2, §3

BAFFR–BAFF = molecular target: T3, BAFFR–BAFF (Homo sapiens, UniProt Q9Y275); experiment: cell-free ELISA-type binding inhibition assay, BAFFR–BAFF
T3 construct: purchased Enzo Life Sciences
Description: as §4, §1, §2, §3

TNF-R1–TNFα = molecular target: T4, TNF-R1–TNFα (Homo sapiens, UniProt P01375); experiment: cell-free ELISA-type binding inhibition assay, TNF-R1–TNFα; settings: cell-free TNF-R1–TNFα binding inhibition; read-out: TNF IC50
T4 construct: purchased Enzo Life Sciences
T4 sequence (P01375 85-233 limits assumed): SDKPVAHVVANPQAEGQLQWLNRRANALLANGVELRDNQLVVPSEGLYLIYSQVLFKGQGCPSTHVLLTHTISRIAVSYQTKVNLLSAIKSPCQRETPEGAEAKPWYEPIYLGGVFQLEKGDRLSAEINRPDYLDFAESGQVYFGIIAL
Description: as §4, §1, §2, §3

CD154 (CD40L) = molecular target: T5, CD154 (CD40L) (Homo sapiens, UniProt P29965); experiment: protein thermal shift (differential scanning fluorimetry), CD154; type: binding; settings: 25 μM of 11, 10 μM of DRI-C21045; CD154 0.05 mg/mL
T5 construct: purchased Peprotech
T5 sequence (P29965 113-261 limits assumed): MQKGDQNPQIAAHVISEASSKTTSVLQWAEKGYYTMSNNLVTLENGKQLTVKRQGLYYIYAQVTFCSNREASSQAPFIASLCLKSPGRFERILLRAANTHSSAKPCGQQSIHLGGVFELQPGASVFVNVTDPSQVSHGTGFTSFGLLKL
From the text: (§5) A protein thermal shift assay (differential scanning fluorimetry, also known as ThermoFluor assay) was used to establish whether our small-molecule probes bind to CD40 or CD154 (CD40L). This technique quantifies the shift in protein stability due to ligand binding via use of a dye whose fluorescence increases when exposed to hydrophobic surfaces, which happens as the protein unfolds exposing its normally buried hydrophobic core residues. […]
(§6) This assay was used following standard protocols as described in the literature to establish whether CD154 or CD40 is the binding partner of our compounds. Sypro orange (ThermoFisher; Waltham, MA, USA) was used as the fluorescence detection dye with an RT-PCR machine (StepOnePlus, Applied Biosystems (Foster City, CA, USA); detection on ROX channel, 575/602 nm) programmed to equilibrate samples at 25 °C for 90 s and then increase temperature to 99 °C by 0.4 °C every 24 s before taking a reading. Melting point of the protein is considered the lowest point of the first derivative plot, as calculated by the software included with the RT-PCR machine. Optimal concentrations were determined by performing a series of preliminary scans at various concentrations of protein, compound, and dye (CD154 0.05 mg/mL, CD40-Fc 0.1 mg/mL, Sypro orange 4×, 100 mM HEPES buffer, 10 μM of DRI-C21045 and 25 μM of 11). […]

CD40 = molecular target: T6, CD40 (Homo sapiens, UniProt P25942); experiment: protein thermal shift (differential scanning fluorimetry), CD40; type: binding; settings: 25 μM of 11, 10 μM of DRI-C21045; CD40-Fc 0.1 mg/mL
T6 construct: purchased Enzo Life Sciences
T6 sequence (P25942 21-277): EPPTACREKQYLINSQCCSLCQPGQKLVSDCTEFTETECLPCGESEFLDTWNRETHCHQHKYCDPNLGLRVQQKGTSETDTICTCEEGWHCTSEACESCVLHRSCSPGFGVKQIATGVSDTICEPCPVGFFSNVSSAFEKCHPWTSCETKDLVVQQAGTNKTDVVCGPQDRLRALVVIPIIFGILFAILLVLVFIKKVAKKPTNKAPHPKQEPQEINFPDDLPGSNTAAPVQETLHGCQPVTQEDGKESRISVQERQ
From the text: as §5, §6

[2] = tested on: CD154-induced NF-κB activation in CD40 sensor cells; experiment: CD40 sensor cell assay (HEK Blue CD40, SEAP reporter); type: cell-based, human
From the text: (§7) As further confirmation of the inhibitory activity of our compounds, a cell-based assay was used with sensor cells (HEK Blue CD40) containing a secreted embryonic alkaline phosphatase (SEAP) reporter gene under the control of a promoter fused to a NF-κB binding site and transfected with CD40. […] For all tested compounds, the corresponding IC50 values are higher than those determined in the cell-free binding inhibition assay (Table 1) representing a loss of activity which is likely due to non-specific binding on account of the presence of proteins and cells in the assay, as well as hydrophobicity-related problems. Cytotoxicities were also evaluated in these same cells and at the same concentrations using a standard MTS assay to ensure that effects are present at non-toxic concentration levels.
CD40 expressing NF-κB sensor cells (HEK Blue, InvivoGen, San Diego, CA, USA) were used to assess the ability of the present compounds to block CD154-induced activation as described before. Briefly, cells were maintained in DMEM at 80% confluence for each experiment. Cells were trypsinized and re-suspended in the same medium without FBS and seeded on 96-well microtiter plates at a density of 50,000 cells/well in the absence and presence of various concentrations of compounds diluted in the same media. For ligand mediated stimulation, a concentration of recombinant human CD154 (100 ng/mL) found to induce an optimal response was maintained in the wells for this purpose. After 24 h of incubation at 37 °C, 40 μL supernatant of each well were taken and added to another 96-well microtiter plate containing 160 μL/well of QUANTI-Blue (InvivoGen). The level of SEAP was determined after 1 h of incubation at 37 °C by reading at 650 nm using a spectrophotometer. A monoclonal anti-human CD154 antibody (clone 40804, R&D Systems, Minneapolis, MN, USA) was used as a positive control at 240 nM concentration.
as §2
Figure 5 Inhibition of CD154-induced NF-κB activation in CD40 sensor cells by compounds 6, 14, 15, and 18 in a concentration-dependent manner. Tartrazine (TZ) and an anti-CD154 antibody (mAb; single dose, 240 nM) were included as negative and positive controls, respectively. Data are average ± SD (normalized to CD154-activated cells alone) for n = 2 independent experiments with duplicates for each condition.

[3] = MTS cytotoxicity assay in HEK Blue cells; type: cell-based; settings: human, HEK Blue CD40 sensor cells; HEK Blue cells, 24 h; read-out: LC50 (cytotoxicity, MTS)
From the text: as §7
(§8) For the MTS assay, HEK Blue cells were cultured and prepared in the same manner as in the CD40 sensor assay. Then cells were added to a 96-well microtiter plate at a density of 50,000 cells/well in the absence or presence of various concentrations of compounds diluted in the same media, without the addition of CD154. The plate was incubated at 37 °C for 24 h. 20 µL per well of MTS, 3-(4,5-dimethylthiazol-2-yl)-5-(3-carboxymethoxyphenyl)-2-(4-sulfophenyl)-2H-tetrazolium, (Promega, Madison, WI, USA) was added to the culture after treatments, and cells were incubated at 37 °C for 4 h. Formazan levels were measured using a plate reader at 490 nm.
as §2

HEK Blue cells = experiment: MTS cytotoxicity assay in HEK Blue cells; type: cell-based; settings: LC50 (MTS) / NF-κB IC50 in sensor cells
From the text: as §7, §8, §2

[4] = solubilization in the in vivo dosing vehicle; type: physicochemical; settings: vehicle 20% HPβCD
CD40–CD154 (CD40L) [5] = molecular target: T1, CD40–CD154 (CD40L); design: method as in PMID 29024591; settings: read-out: CD40–CD154 IC50 (previous work); cited from earlier work
[6] = cell-free CD40–CD154 binding inhibition, read-out: CD40 IC50

IC50 (CD40–CD154 (CD40L) [1]; cell-free binding inhibition assay, read-out: CD40–CD154 IC50) [µM] | shift in melting temperature (Tm) of CD154 (CD154 (CD40L)) | shift in melting temperature (Tm) of CD40 (CD40) | SMILES | IC50 (CD40–CD154 (CD40L) [1]; [6]) [µM] | IC50 (OX40–OX40L) [µM] | IC50 (BAFFR–BAFF) [µM] | IC50 (TNF-R1–TNFα) [µM] | selectivity toward CD40–CD154 against all other PPIs tested (CD40–CD154 (CD40L) [1]) [fold] | selectivity toward CD40–CD154 against all other PPIs tested (CD40–CD154 (CD40L) [1]; listed as DRI-C21091) | inhibition of CD154-induced NF-κB activation (qualitative) [2] | IC50 ([2]; Homo sapiens, CD154 100 ng/mL, 24 h) [µM] | CC50 at 24 h [3] [µM] | therapeutic index, TI = LC50/IC50 (HEK Blue cells) | solubility in the vehicle for in vivo dosing [4] | IC50 (CD40–CD154 (CD40L) [5]) [µM]
60 | caused clear shifts | not for CD40 | COC(=O)c1ccc(C(=O)Nc2ccc(-c3ccc(C(=O)Nc4ccc(S(=O)(=O)O)c5cccc(S(=O)(=O)O)c45)cc3)cc2)cc1 [Compound 11, 4-(4′-(4-(Methoxycarbonyl)benzamido)-[1,1′-biphenyl]-4-carboxamido)naphthalene-1,5-disulfonic acid] | 60.1 | 120 | 540 | 456 | – | – | – | – | – | – | – | –
– | – | – | O=C(Nc1ccc(-c2ccc(C(=O)Nc3cccc4cccc(S(=O)(=O)O)c34)cc2)cc1)c1ccc(-c2ccc([N+](=O)[O-])cc2)cc1 [Compound 14, 8-(4′-(4′-Nitro-[1,1′-biphenyl]-4-carboxamido)-[1,1′-biphenyl]-4-carboxamido)naphthalene-1-sulfonic acid] | 0.02 | 6.88 | 0.784 | 70.3 | > 30 | more than thirty-fold | concentration-dependent inhibition | 11.1 | 55.6 | 5 | could not be sufficiently solubilized in the vehicle | –
– | caused clear shifts | not for CD40 | COC(=O)c1ccc(C(=O)Nc2ccc(-c3ccc(C(=O)Nc4cccc5cccc(S(=O)(=O)O)c45)cc3)cc2)cc1 [DRI-C21045, reference compound] | – | – | – | – | – | – | – | – | – | – | – | 0.17
